For series [1], the system named is B-16 cells (mouse melanoma, ATCC CRL 6323). As to the kind of experiment: Inhibition of melanin synthesis. Type of series: cell-based. The note with it: 50 μg/ml, 3 days, vs solvent control; for inhibition at 50 µg/mL: Mus musculus, B16, 72 h, read-out: Inhibitory effect on melanin synthesis (%). The protocol: Catechin, rasveratrol, isoflavone, kojic acid, ascorbic acid, and Moriradicis cortex extracts were used as positive controls.
The B-16 cells (mouse melanoma, ATCC CRL 6323) were maintained in the DMEM medium supplemented 4.5 g/E of glucose, 10% serum, and 1% antibiotic at 37° C. for 24 hours. After the cell was incubated with 0.05% trypsin containing 0.02% EDTA, the cell was plated and incubated for 48 hours. The cells were treated with 50 μg/ml of compositions 1 to 18, or positive controls and incubated at 37° C. for 3 days. The cells were then added with 1 me of lysis buffer (phosphate buffer solution, 0.02% EDTA, 0.05% trypsin) and centrifuged for 5 min After the cells were treated with 5% trichloro acetate (TCA), the farmed melanin was separated and dissolved in 1N NaOH. The absorbance was measured at 475 nm using spectrophotometer. Concentration of melanin was determined by the standard curve of synthetic melanin (SIGMA CO. USA). The cell treated with the same amount of solvent was used as a negative control. The inhibitory effects of each composition on melanin synthesis were determined by following Equation.
{1−(M/M0)}×100 [Equation]
M: amount of melanin of test group or positive controls
M0: amount of melanin of negative control

For series [2], the system named is elastase. As to the kind of experiment: Inhibition of elastase. Type of series: biochemical. The note with it: 50 μg/ml, 10 nM elastase, 25° C., 10 min. The procedure: Catechin, rasveratrol, isoflavone, lactokine were used for positive controls. […] The cell treated with the same amount of solvent was used as a negative control. The inhibitory effects of each sample on elastase were determined by following Equation. The results are described in Table 3. {1−(E/E0)}×100 [Equation] E: The absorbance of test group or positive control E0: The absorbance of negative control

The subject of series [3] is rat basophilic leukemia cell (RBL-2H3). As to the kind of experiment: Inhibition on histamine release (DNP-BSA stimulated). Type of series: cell-based. As to conditions: 50 μg/ml, RBL-2H3 cells, vs negative control. The procedure: In order to assess the anti-inflammation and anti-allergic activities of the compositions in the present invention, the inhibitory effects of the compositions on histamine synthesis, which closely related with inflammation including allergy, were investigated. The inhibitory effects of the compositions on histamine synthesis were assessed using the rat basophilic leukemia cell (RBL-2H3) according to the Kawasaki's method. After the cell (1×10^5 cells/well) was cultured in RPMI 1640 medium supplemented with 2% FBS (fetal bovine serum) and rat anti-DNP (dinitrophenol) IgE at 37° C. for 120 min, the cell was washed with the HPEPS buffer to remove the residual IgE. The cells was incubated in either absence (negative control) or presence (test group) of the com[…]. for 10 min. The cell was then treated with DNP-BSA (Dinitrophenol-conjugated Bovine serum albumin), as a histamine release antigen, for 1 hour at 37° C. After the reaction was stopped by adding the HEPES buffer solution, the supernatant was collected and treated with 20 μl of the perchloric acid and centrifuged. The histamine release in the supernatant was measured using the HPLC. The % inhibitions on histamine release of test group were calculated by following Equation compared with negative control. […] H: histamine release of test group H0: histamine release of negative control

In series [4] the test system is NB1RGB cells (normal human fibroblast cell line from skin). As to conditions: concentration that reaches 50% of apoptosis, 1 hour incubation. The protocol:
(§1) The cytotoxicity of the compositions to the normal skin cell was assessed using the NHEK (F) cells (normal human epidermal keratinocytes of neonatal foreskin cell) and the NB1RGB cells (normal human fibroblast cell line from skin). NHEK (F) and NB1RGB cells, which are main components of the epidermis and Bemis in normal human skin, produce collagen and elastin and provide skin elasticity.
(§2) The mixture of PMS/WST-1 (1-methoxy-5-methylphenazinium methyl sulfate/2-(4-indophenyl)-3-(4-nitrophenyl)-5-(2,4-disulfo phenyl)-2H-tetrazolium monosodium salt) was added to the medium and incubated for 1 hour to generate soluble formosan, and then the absorbance was measured at 415 nm using spectrophotometer. The cells treated with solvent without the compositions were used as a negative control, whereas the cells treated with 1% (w/v) SDS solution were used as a positive control (100% cell apoptosis).
(§3) apoptosis(%)=(A0−A/A0−As)×100 [Equation]
(§4) A0=absorbance of the cell that was not treated with the composition
(§5) A=absorbance of the cell that was treated with the composition […]
(§6) As=absorbance of the cell that was treated with 1% (w/v) SDS (positive control group)

The test system of series [5] is NHEK (F) cells (normal human epidermal keratinocytes of neonatal foreskin cell). The note with it: concentration that reaches 50% of apoptosis, 1 hour incubation. The protocol: as §1, §2, §3, §4, §5, §6
The test system of series [6] is TG (triacyl glycerol) synthesis. As to the kind of experiment: Inhibition of TG synthesis in hamster auricles. Type of series: in vivo. The note with it: hamster auricles, 200 μl of 10% solution topically once a day for 14 days; control group = 100. The procedure: The prevention and treatment effects of the compositions on the acne were assessed through the inhibition of TG (triacyl glycerol) synthesis and sebocyte proliferation in hamster model.
The inhibitory effects of the composition 6 and 14 on TG synthesis were assessed as compared with catechin (positive control group). 5 week-old male hamster was divided into three groups (negative control group, test group, positive control group) and housed 10 animals to a cage after the acclimatization for 2 weeks. Animal rooms were maintained at 25±1° C. and 55% of humidity with a 12-hr light/dark cycle. The animals were freely accessed to diet and water throughout the study. The auricles of hamster were topically treated once a day for 14 days with 200 μl of 10% of the composition 6, 14 or catechin. The solvent for topical application was composed of a mixture of ethanol and glycerol (95:5, v/v). The animals in negative control group were treated with the same volume of vehicle. The auricles were separated from the body and the sebum generated on the skin surface was extracted with acetone. The amount of TG in skin surface was calculated from the sebum extracts. Sebocyte were suspended into solution from the auricle tissues using sonicator, and then amount of intercellar TG was determined by automatic thin-layer chromatography using triolate as a standard. The relative TG concentrations of each sample were calculated from comparison with negative control.

For `O=C1O[C@H]([C@@H](O)CO)C(O)=C1O` [ascorbic acid, reference compound], the inhibition at 50 µg/mL in series [1] came to 65.3%.

Consider `Oc1cc(O)cc(Oc2c(O)cc(O)c3c2Oc2c(O)cc(O)cc2O3)c1` [composition 1], for which the “Inhibitory effect on melanin synthesis (%)” value (from here on “Inhibitory effect … (%)”) in series [1] turned out to be 84.3%. In series [2], the “Inhibition of Elastase (%)” value was determined as 87.4%. In addition, the “% Inhibition on histamine release” value in series [3] is recorded as 60.4%. In series [4], the “LD50 (μM) NB1RGB cell” value is 110.4 µM. Also, the “LD50 (μM) NHEK (F) cell” value in series [5] was 56.4 µM.

`Oc1cc(O)cc(Oc2c(O)cc(O)c3c2Oc2c(O)cc(Oc4c(O)cc(Oc5c(O)cc(O)c6c5Oc5c(O)cc(O)cc5O6)cc4O)cc2O3)c1` [composition 2]: the “Inhibitory effect … (%)” value in series [1] was 82.0%. Moreover, the “Inhibition of Elastase (%)” value in series [2] is 86.4%. In series [3], the “% Inhibition on histamine release” value worked out at 70.3%. In addition, in series [4], the “LD50 (μM) NB1RGB cell” value came to 150.3 µM. For the same molecule, the “LD50 (μM) NHEK (F) cell” value in series [5] was determined as 48.9 µM.

Take `Oc1cc(O)cc(Oc2c(O)cc(O)c3c2Oc2c(O)cc4oc5c(Oc6cc(O)cc(O)c6)c(O)cc(O)c5c4c2O3)c1` [composition 4]: the “Inhibitory effect … (%)” value in series [1] was found to be 82.3%. Moreover, the “Inhibition of Elastase (%)” value in series [2] is 85.4%. The “% Inhibition on histamine release” value in series [3] turned out to be 80.3%.

As to `Oc1cc(O)cc(Oc2c(O)cc(O)c3c2Oc2c(O)cc(O)c(-c4c(O)cc(O)c5c4Oc4c(O)cc(O)c(Oc6cc(O)cc(O)c6)c4O5)c2O3)c1` [composition 5], the “Inhibitory effect … (%)” value in series [1] worked out at 83.5%. Besides, in series [2], the “Inhibition of Elastase (%)” value is given as 90.4%. In series [3], the “% Inhibition on histamine release” value is reported as 77.4%. In addition, in series [5], the “LD50 (μM) NHEK (F) cell” value came out at 100.4 µM.

For `Oc1cc(O)cc(Oc2c(O)cc(O)c3c2Oc2c(O)cc4oc5cc(O)cc(O)c5c4c2O3)c1` [composition 7], the “Inhibitory effect … (%)” value in series [1] is reported as 80.5%. Moreover, the “Inhibition of Elastase (%)” value in series [2] is given as 88.7%. Also, the “% Inhibition on histamine release” value in series [3] is reported as 70.8%. Further, the “LD50 (μM) NB1RGB cell” value in series [4] came to 100.4 µM. Besides, in series [5], the “LD50 (μM) NHEK (F) cell” value amounted to 78.9 µM.

As for `Oc1cc(O)cc(Oc2cc(O)c3c(c2)Oc2c(O)cc(O)c(Oc4cc(O)cc(O)c4)c2O3)c1` [composition 8], in series [1], the “Inhibitory effect … (%)” value is given as 87.6%. Moreover, in series [2], the “Inhibition of Elastase (%)” value worked out at 87.7%. Besides, in series [3], the “% Inhibition on histamine release” value was 62.9%. Further, the “LD50 (μM) NB1RGB cell” value in series [4] came to 104.8 µM. In series [5], the “LD50 (μM) NHEK (F) cell” value was found to be 93.2 µM.

On to `Oc1cc(O)cc(Oc2c(Oc3c(O)cc(O)cc3O)cc(O)c3c2Oc2c(O)cc(O)cc2O3)c1` [composition 9], for which the “Inhibitory effect … (%)” value in series [1] was 84.3%. In addition, the “Inhibition of Elastase (%)” value in series [2] came out at 82.7%. Moreover, in series [3], the “% Inhibition on histamine release” value is reported as 72.1%. The “LD50 (μM) NB1RGB cell” value in series [4] was found to be 114.3 µM. Moreover, in series [5], the “LD50 (μM) NHEK (F) cell” value is 57.2 µM.

On to `Oc1cc(O)cc(Oc2c(O)cc(O)c3c2Oc2c(O)cc(O)c(-c4c(O)cc(O)c5c4Oc4c(O)cc(Oc6c(O)cc(O)cc6O)c(Oc6cc(O)cc(O)c6)c4O5)c2O3)c1` [composition 10], for which the “Inhibitory effect … (%)” value in series [1] is 92.1%. Moreover, the “Inhibition of Elastase (%)” value in series [2] is on record as 88.1%. Besides, in series [3], the “% Inhibition on histamine release” value was 83.2%. For the same molecule, in series [5], the “LD50 (μM) NHEK (F) cell” value was determined as 48.2 µM.

As for `O=c1c(-c2ccccc2)coc2ccccc12` [isoflavone, reference compound], the inhibition at 50 µg/mL in series [1] turned out to be 64.3%. In series [2], the “Inhibition of Elastase (%)” value turned out to be 38.3%.

As for `O=c1cc(CO)occ1O` [kojic acid, reference compound], the inhibition at 50 µg/mL in series [1] was 60.3%.

As for `Oc1ccc(/C=C/c2cc(O)cc(O)c2)cc1` [rasveratrole, reference compound], in series [1], the “Inhibitory effect … (%)” value is given as 40.9%. Besides, in series [2], the “Inhibition of Elastase (%)” value was 48.3%.

In the case of catechin [reference compound], in series [1], the “Inhibitory effect … (%)” value amounted to 50.4%. Also, the “Inhibition of Elastase (%)” value in series [2] is listed as 50.4%. In series [6], the “Relative TG concentration in the skin cell (%)” value amounted to 110.4% and the “Relative TG concentration in the skin surface (%)” value stood at 108.2%.

The record behind these values is patent publication US20120122965A1, “COMPOSITIONS FOR SKIN PROTECTION AND IMPROVEMENT OF SKIN DISEASES CONTAINING THE DIBENZO-P-DIOXINE DERIVATIVES” (priority 2007, published 2012).
